The assay is described as follows: Antagonist activity at VDR in human HL60 cells assessed as effect on 1,25-(OH)2-D3-induced cell differentiation by NBT assay.
As for `C=C1/C(=C\C=C2/CCC[C@]3(C)[C@@H]([C@H](C)C[C@@H]4C[C@@](C)(O)C(=O)N4Cc4cc(OC)cc(OC)c4)CC[C@@H]23)C[C@@H](O)C[C@@H]1O` [(3R,5R)-1-(3,5-dimethoxybenzyl)-5-((R)-2-((1R,3aS,7aR)-4-(2-((3S,5R)-3,5-dihydroxy-2-methylenecyclohexylidene)ethylidene)-7a-methyl-octahydro-1H-inden-1-yl)propyl)-3-hydroxy-3-methylpyrrolidin-2-one], the IC50 was above 3000 nM. With `C=C1/C(=C\C=C2/CCC[C@]3(C)[C@@H]([C@H](C)C[C@H]4C[C@@](C)(O)C(=O)N4Cc4cc(OC)cc(OC)c4)CC[C@@H]23)C[C@@H](O)C[C@@H]1O` [(3R,5S)-1-(3,5-dimethoxybenzyl)-5-((R)-2-((1R,3aS,7aR)-4-(2-((3S,5R)-3,5-dihydroxy-2-methylenecyclohexylidene)ethylidene)-7a-methyl-octahydro-1H-inden-1-yl)propyl)-3-hydroxy-3-methylpyrrolidin-2-one], the IC50 is above 3000 nM. Turning to `C=C1/C(=C\C=C2/CCC[C@]3(C)[C@@H]([C@H](C)C[C@@H]4C[C@](C)(O)C(=O)N4Cc4cc(OC)cc(OC)c4)CC[C@@H]23)C[C@@H](O)C[C@@H]1O` [(3S,5R)-1-(3,5-dimethoxybenzyl)-5-((R)-2-((1R,3aS,7aR)-4-(2-((3S,5R)-3,5-dihydroxy-2-methylenecyclohexylidene)ethylidene)-7a-methyl-octahydro-1H-inden-1-yl)propyl)-3-hydroxy-3-methylpyrrolidin-2-one], the IC50 is above 3000 nM. As to `C=C1/C(=C\C=C2/CCC[C@]3(C)[C@@H]([C@H](C)C[C@H]4C[C@](C)(O)C(=O)N4Cc4cc(OCCCC)cc(OCCCC)c4)CC[C@@H]23)C[C@@H](O)C[C@@H]1O` [(3S,5S)-1-(3,5-dibutoxybenzyl)-5-((R)-2-((1R,3aS,7aR)-4-(2-((3S,5R)-3,5-dihydroxy-2-methylenecyclohexylidene)ethylidene)-7a-methyl-octahydro-1H-inden-1-yl)propyl)-3-hydroxy-3-methylpyrrolidin-2-one], the IC50 is 540 nM. The same measure for `C=C1/C(=C\C=C2/CCC[C@]3(C)[C@@H]([C@H](C)C[C@H]4C[C@](C)(O)C(=O)N4Cc4cc(OCC)cc(OCC)c4)CC[C@@H]23)C[C@@H](O)C[C@@H]1O` [(3S,5S)-1-(3,5-diethoxybenzyl)-5-((R)-2-((1R,3aS,7aR)-4-(2-((3S,5R)-3,5-dihydroxy-2-methylenecyclohexylidene)ethylidene)-7a-methyl-octahydro-1H-inden-1-yl)propyl)-3-hydroxy-3-methylpyrrolidin-2-one]: 90 nM; for `C=C1/C(=C\C=C2/CCC[C@]3(C)[C@@H]([C@H](C)C[C@H]4C[C@](C)(O)C(=O)N4Cc4cc(OC)cc(OC)c4)CC[C@@H]23)C[C@@H](O)C[C@@H]1O` [(3S,5S)-1-(3,5-dimethoxybenzyl)-5-((R)-2-((1R,3aS,7aR)-4-(2-((3S,5R)-3,5-dihydroxy-2-methylenecyclohexylidene)ethylidene)-7a-methyl-octahydro-1H-inden-1-yl)propyl)-3-hydroxy-3-methylpyrrolidin-2-one]: 300 nM; for `C=C1/C(=C\C=C2/CCC[C@]3(C)[C@@H]([C@H](C)C[C@H]4C[C@](C)(O)C(=O)N4CCc4cc(OC)cc(OC)c4)CC[C@@H]23)C[C@@H](O)C[C@@H]1O` [(3S,5S)-1-(3,5-dimethoxyphenethyl)-5-((R)-2-((1R,3aS,7aR)-4-(2-((3S,5R)-3,5-dihydroxy-2-methylenecyclohexylidene)ethylidene)-7a-methyl-octahydro-1H-inden-1-yl)propyl)-3-hydroxy-3-methylpyrrolidin-2-one]: 860 nM. Turning to `C=C1/C(=C\C=C2/CCC[C@]3(C)[C@@H]([C@H](C)C[C@H]4C[C@](C)(O)C(=O)N4Cc4cc(OCCC)cc(OCCC)c4)CC[C@@H]23)C[C@@H](O)C[C@@H]1O` [(3S,5S)-1-(3,5-dipropoxybenzyl)-5-((R)-2-((1R,3aS,7aR)-4-(2-((3S,5R)-3,5-dihydroxy-2-methylenecyclohexylidene)ethylidene)-7a-methyl-octahydro-1H-inden-1-yl)propyl)-3-hydroxy-3-methylpyrrolidin-2-one], the IC50 worked out at 180 nM. As for `C=C1/C(=C\C=C2/CCC[C@]3(C)[C@@H]([C@H](C)C[C@H]4C[C@](C)(O)C(=O)N4Cc4ccccc4)CC[C@@H]23)C[C@@H](O)C[C@@H]1O` [(3S,5S)-1-benzyl-5-((R)-2-((1R,3aS,7aR)-4-(2-((3S,5R)-3,5-dihydroxy-2-methylenecyclohexylidene)ethylidene)-7a-methyl-octahydro-1H-inden-1-yl)propyl)-3-hydroxy-3-methylpyrrolidin-2-one], the IC50 is 700 nM. To `C=C1/C(=C\C=C2/CCC[C@]3(C)[C@@H]([C@H](C)C[C@H]4C[C@](C)(O)C(=O)N4CCCc4cc(OC)cc(OC)c4)CC[C@@H]23)C[C@@H](O)C[C@@H]1O` [(3S,5S)-5-((R)-2-((1R,3aS,7aR)-4-(2-((3S,5R)-3,5-dihydroxy-2-methylenecyclohexylidene)ethylidene)-7a-methyl-octahydro-1H-inden-1-yl)propyl)-1-(3-(3,5-dimethoxyphenyl)propyl)-3-hydroxy-3-methylpyrrolidin-2-one] belongs 780 nM; to `C=C1/C(=C\C=C2/CCC[C@]3(C)[C@@H]([C@H](C)C[C@H]4C[C@](C)(O)C(=O)N4CCCc4ccccc4)CC[C@@H]23)C[C@@H](O)C[C@@H]1O` [(3S,5S)-5-((R)-2-((1R,3aS,7aR)-4-(2-((3S,5R)-3,5-dihydroxy-2-methylenecyclohexylidene)ethylidene)-7a-methyl-octahydro-1H-inden-1-yl)propyl)-3-hydroxy-3-methyl-1-(3-phenylpropyl)pyrrolidin-2-one], 2200 nM. Take `C=C1/C(=C\C=C2/CCC[C@]3(C)[C@@H]([C@H](C)C[C@H]4C[C@](C)(O)C(=O)N4CCCCc4ccccc4)CC[C@@H]23)C[C@@H](O)C[C@@H]1O` [(3S,5S)-5-((R)-2-((1R,3aS,7aR)-4-(2-((3S,5R)-3,5-dihydroxy-2-methylenecyclohexylidene)ethylidene)-7a-methyl-octahydro-1H-inden-1-yl)propyl)-3-hydroxy-3-methyl-1-(4-phenylbutyl)pyrrolidin-2-one]: the IC50 is 390 nM. `C=C1/C(=C\C=C2/CCC[C@]3(C)[C@@H]([C@H](C)C[C@H]4C[C@](C)(O)C(=O)N4CCc4ccccc4)CC[C@@H]23)C[C@@H](O)C[C@@H]1O` [(3S,5S)-5-((R)-2-((1R,3aS,7aR)-4-(2-((3S,5R)-3,5-dihydroxy-2-methylenecyclohexylidene)ethylidene)-7a-methyl-octahydro-1H-inden-1-yl)propyl)-3-hydroxy-3-methyl-1-phenethylpyrrolidin-2-one]: the IC50 came out at 194 nM.

Values taken from BindingDB's records for doi:10.1016/j.bmcl.2008.06.095 (Tokyo University of Agriculture and Technology, 2008).
